Tested on: oxidoreductase
Assay: Michaelis constants (Dixon and Webb method, Lineweaver-Burke plots)
Format: biochemical, Microbacterium SP. (NCIB 12048)
Settings: two substrate enzyme; calculated from primary Lineweaver-Burke plots
Procedure: The Michaelis constants (K^m) for NAD^+ and 1,2-ethanediol were calculated using the method described by Dixon, M and Webb, E.C. ("Enzymes", Longman Group Limited, 1964 pp. 84-86) for two substrate enzymes, based on data from primary plots constructed by the Lineweaver-Burke technique.

Row | SMILES | Km [µM]
1 | OCCO [Monoethylene Glycol, 1,2-ethanediol] | ~480
2 | NC(=O)c1ccc[n+]([C@@H]2O[C@H](COP(=O)([O-])OP(=O)(O)OC[C@H]3O[C@@H](n4cnc5c(N)ncnc54)[C@H](O)[C@@H]3O)[C@@H](O)[C@H]2O)c1 [NAD^+, nicotinamide adenenine dinucleotide] | ~330

Source: patent US5002886A, “Oxidoreductase and the preparation thereof” (British Gas PLC, priority 1986, dated 1991)
